The source of these data is patent US9079888B2, “Compounds as histamine H3 receptor ligands” (Suven Life Sciences Limited, priority 2011, dated 2015).

Where two headings read alike, the source gives them in different places.

The conditions of data set [1]: male, Wistar, rat, in vivo.
Description: (§2) Male Wistar rats (230-280 grams) obtained from NIN (National Institute of Nutrition, Hyderabad, India) were used as an experimental animal. Three animals were housed in each cage. Animals were kept fasted over night and maintained on a 12 hours light/dark cycle. Three rats were dosed New chemical entity (NCE) orally (3 or 10 mg/kg) and intravenously (1 or 5 mg/kg) on day 0 and day 2.
(§3) At each time point blood was collected by jugular vein. Blood was stored at 2-8° C. until analysis. The concentrations of the NCE compound in blood were determined using LC-MS/MS method. Schedule time points: Pre dose 0.08, 0.25, 0.5, 1, 2, 4, 6, 8 and 24 hours after dosing (n=3). The NCE compounds were quantified in blood by partially validated LC-MS/MS method using acetonitrile precipitation technique. […] Study samples were analyzed using calibration samples in the batch and quality control samples spread across the batch.
(§4) Pharmacokinetic parameters were calculated by non-compartmental model using software WinNonlin version 5.0.1.
Another data set has as its system Male Wister rats. As to the kind of experiment: Object Recognition Task Model. The data set is classed as in vivo. The conditions noted are these: rat; for Exploration time mean ± S.E.M, Familiar object / Exploration time mean ± S.E.M, Novel object: choice trial T2 24 h after T1. As for the experimental part:
(§1) The cognition enhancing properties of compounds of this invention were estimated by using this model.
Male Wister rats (230-280 grams) obtained from N. I. N. (National Institute of Nutrition, Hyderabad, India) was used as experimental animals. Four animals were housed in each cage. Animals were kept on 20% food deprivation before one day and given water ad libitum throughout the experiment and maintained on a 12 hours light/dark cycle. Also the rats were habituated to individual arenas for 1 hour in the absence of any objects.
One group of 12 rats received vehicle (1 mL/Kg) orally and another set of animals received compound of the formula (I) either orally or i.p., before one hour of the familiar (T1) and choice trial (T2).
The experiment was carried out in a 50×50×50 cm open field made up of acrylic. In the familiarization phase, (T1), the rats were placed individually in the open field for 3 minutes, in which two identical objects (plastic bottles, 12.5 cm height×5.5 cm diameter) covered in yellow masking tape alone (a1 and a2) were positioned in two adjacent corners, 10 cms from the walls. After 24 hours of the (T1) trial for long-term memory test, the same rats were placed in the same arena as they were placed in T1 trial. Choice phase (T2) rats were allowed to explore the open field for 3 minutes in presence of one familiar object (a3) and one novel object (b) (Amber color glass bottle, 12 cm high and 5 cm in diameter). Familiar objects presented similar textures, colors and sizes. During the T1 and T2 trial, explorations of each object (defined as sniffing, licking, chewing or having moving vibrissae whilst directing the nose towards the object at a distance of less than 1 cm) were recorded separately by stopwatch. Sitting on an object was not regarded as exploratory activity, however, it was rarely observed.
T1 is the total time spent exploring the familiar objects (a1+a2).
T2 is the total time spent exploring the familiar object and novel object (a3+b).
The object recognition test was performed as described by Ennaceur, A., Delacour, J., 1988, A new one-trial test for neurobiological studies of memory in rats—Behavioural data, Behay. Brain Res., 31, 47-59.

A further data set in a line: in vivo. The conditions noted are these: male, Wistar, rat, po, 3 mg/kg.
In data set [2] the test system is Scopolamine Induced amnesia. As to the kind of experiment: Morris Water Maze. It is filed as in vivo, rats. The conditions noted are these: rat, active dose p.o. As for the experimental part: as §1
The water maze apparatus consisted of a circular pool (1.8 m diameter, 0.6 m high) constructed in black Perspex (TSE systems, Germany) filled with water (24±2° C.) and positioned underneath a wide-angled video camera to track animal. The 10 cm^2 perspex platform, lying 1 cm below the water surface, was placed in the centre of one of the four imaginary quadrants, which remained constant for all rats. The black Perspex used in the construction of the maze and platform offered no intramaze cues to guide escape behavior. By contrast, the training room offered several strong extramaze visual cues to aid the formation of the spatial map necessary for escape learning. An automated tracking system, [Videomot 2 (5.51), TSE systems, Germany] was employed. This program analyzes video images acquired via a digital camera and an image acquisition boards that determined path length, swim speed and the number of entries and duration of swim time spent in each quadrant of the water maze.

Data set [3] can be described thus: Rodent Brain Penetration Study. It is filed as in vivo, Male Wister rats. The conditions noted are these: brain / whole blood; Wistar/Male rat, Per Oral, 3 mg/kg, vehicle water; read-out: Brain Penetration Ratio (Cbrain/Cblood). As for the experimental part:
Three animals were housed in each cage. Animals were given water and food ad libitum throughout the experiment, and maintained on a 12 hours light/dark cycle.
New chemical entity (NCE) was dissolved in suitable vehicle and administered orally (3 or 10 mg/kg). […] Blood and brain tissue were collected and brain was homogenized to yield 20% w/v. Blood was stored at 2-8° C. and brain homogenate was frozen at −20° C. until analysis. The concentrations of NCE in blood and brain were quantified using LC-MS/MS method.
Extents of brain-blood ratio were calculated (Cbrian/Cblood)

A short description of data set [4]: Rodent Pharmacokinetic Study.
Description: as §2, §3, §4
For data set [5], the target named is Human or Rat Histamine H3 Receptor. As to the kind of experiment: Binding assay for human or rat Histamine H3 receptor ([3H] R-α-methylhistamine displacement). The conditions noted are these: radioligand [3H] R-α-methylhistamine 3.0 nM; receptor source rat brain frontal cortex or recombinant human cDNA in CHO cells (table does not say which). As for the experimental part:
The reaction was terminated by rapid vacuum filtration onto the glass fiber filters. Radioactivity trapped onto the filters was determined and compared to the control values in order to ascertain any interactions of the test compound(s) with either cloned human or rat receptor binding site.

A further data set concerns rats. As to the kind of experiment: Inhibition of Food Intake. The data set is classed as in vivo. The conditions noted are these: rats fasted 18 hours, oral treatment 60 minutes before feed, active dose. As for the experimental part:
The anti-obesity properties of compounds of this invention were estimated using this model.
The experiment consisted of 6 days. The rats were adapted to the 18 hours fasting and 6 hours feeding pattern. The animals were housed in a group of three in the cages provided with the fasting grills and was fasted for 18 hours. After 18 hours fasting the rats were separated and placed individually in the cage. Weighed amount of feed was provided to rats for 6 hours and the feed intake at 1 hour, 2 hours, 4 hours and 6 hours was measured.
Again the rats were regrouped and fasted for 18 hours. The above procedure was followed for 5 days. The average cumulative food intake by the rats on the last 3 days was calculated. Animals were randomized on the basis of their previous three days food intake. On the day of experiment the rats were orally treated test compounds or vehicle. After 60 minutes, the feed was provided to the rats and the food intake at 1 hour, 2 hours, 4 hours and 6 hours was measured. The food intake by the rats treated with test compound was compared with the vehicle treated group by using Unpaired Student's t test.

Where [6] appears, read: male, Wistar, rat, whole blood, iv, 1 mg/kg.
The mark [7] stands for this setting: male, Wistar, rat, whole blood, po, 3 mg/kg.
Where [8] appears, read: Wistar/Male rat, Per Oral, 3 mg/kg, vehicle water, blood.

Description for in vivo: as §2, §3, §4

Broadly, the Cmax is the maximum level reached in the sampled fluid or tissue. The term Tmax denotes the time at which the peak concentration occurs. As usually defined, the bioavailability is the share of a dose that reaches the circulation, judged against a reference dose that is usually intravenous. In data set [1] (iv, 1 mg/kg), `Cl.Cl.O=C(CN1CCOCC1)Nc1ccc(OC2CCN(C3CCC3)CC2)cc1` [Example 1, N-[4-(1-Cyclobutylpiperidin-4-yloxy)phenyl]-2-(morpholin-4-yl)-acetamide dihydrochloride] returned an AUCt of 263 ± 21 ng·h/mL. The compound also registered an AUCt in data set [1] (po, 3 mg/kg) of 626 ± 118 ng·h/mL. In the data set on Male Wister rats (0.3 mg/kg p.o.), the Inference result was “Active”; the “Exploration time mean ± S.E.M, Familiar object” value was determined as 5.56 ± 0.81 s; the “Exploration time mean ± S.E.M, Novel object” value came out at 15.36 ± 1.74 s. In the data set “in vivo”, the peak level (Cmax) was 349 ± 35 ng/mL, the Tmax was found to be 25.2 ± 8.4 min and the bioavailability worked out at 79 ± 11%. The “Reversal of Scopolamine Induced amnesia” value in data set [2] is “≦1 mg/kg, p.o”. Further, in data set [3], the Kp came out at 0.93 ± 0.05.

A word on the AUC(0-t): it is exposure summed from dosing to a finite time, without extrapolation to infinity. In general, half-life refers to the time in which the quantity being followed falls by half. High values mean slow decline, low ones rapid decline. The term Ki denotes a dissociation constant, usually derived from enzyme kinetics or from competition with a known ligand. In data set [4] (setting [6]), `Cl.Cl.O=C(CN1CCOCC1)Nc1ccc(OC2CCN(C3CCC3)CC2)cc1F` [Example 3, N-[4-(1-Cyclobutylpiperidin-4-yloxy)-2-fluorophenyl]-2-(morpholin-4-yl)acetamide dihydrochloride] had an AUC(0-t) of 173 ± 60 ng·h/mL and a half-life of 33.6 ± 11.4 min. Also, in data set [4] (setting [7]), the AUC(0-t) worked out at 174 ± 43 ng·h/mL, the Cmax was 129 ± 34 ng/mL, the Tmax was found to be 25.2 ± 8.4 min and the bioavailability worked out at 35 ± 5%. In data set [4] (setting [7]), this compound gave a half-life of 87.6 ± 45 min. Besides, the Ki in data set [5] worked out at 14.9 nM. For the same compound, in the data set on Male Wister rats (3 mg/kg p.o.), the Inference entry is “Active”; the “Exploration time mean ± S.E.M, Familiar object” value came out at 6.77 ± 0.44 s; the “Exploration time mean ± S.E.M, Novel object” value was determined as 12.49 ± 1.59 s. Further, in data set [3], the Kp was 2.07 ± 0.07.

The compound `CC(C)N1CCC(Oc2ccc(NC(=O)CN3CCOCC3)cc2)CC1` [Example 22, N-[4-(1-Isopropylpiperidin-4-yloxy)-phenyl]-2-(morpholin-4-yl) acetamide] showed an AUCt in data set [4] (Wistar/Male rat, Intravenous, 1 mg/kg, vehicle water, blood) of 340 ± 60 ng·h/mL. In addition, in data set [4] (setting [8]), the AUCt came out at 850 ± 61 ng·h/mL and the Tmax was 25.2 ± 8.4 min. In data set [4] (Wistar/Male rat, per oral 3 mg/kg vs intravenous 1 mg/kg), this compound displayed a bioavailability of 85 ± 12%. The compound also came in with a Cmax in data set [4] (setting [7]) of 376 ± 27 ng/mL. Also, the Ki in data set [5] amounted to 8.3 nM. Further, in the data set on Male Wister rats (1 mg/kg p.o.), the Inference result is “Active”; the “Exploration time mean ± S.E.M, Familiar object” value amounted to 7.12 ± 1.51 s; the “Exploration time mean ± S.E.M, Novel object” value turned out to be 16.50 ± 2.37 s. Further, the “Inhibition of food intake” value with rats is 60 mg/kg, p.o.

In data set [4] (setting [6]), `CC(=O)N(CCN1CCOCC1)c1ccc(OC2CCN(C3CCC3)CC2)cc1F` [Example 37, N-[4-(1-Cyclobutylpiperidin-4-yloxy)-2-fluorophenyl]-N-[2-(morpholin-4-yl)-ethyl] acetamide] had an area under the curve AUC(0-t) of 68 ± 2 ng·h/mL and a half-life of 198 ± 25.2 min. In data set [4] (setting [7]), the AUC(0-t) is 64 ± 16 ng·h/mL, the Cmax was 27 ± 11 ng/mL, the Tmax is 30 min and the bioavailability was found to be 32 ± 8%. Also, the half-life in data set [4] (setting [7]) was 215 ± 25.8 min. Besides, in data set [5], the Ki was 9.73 nM. In the data set on Male Wister rats (3 mg/kg p.o.), the Inference entry is recorded as “Active”; the “Exploration time mean ± S.E.M, Familiar object” value is 5.53 ± 1.67 s; the “Exploration time mean ± S.E.M, Novel object” value was 14.18 ± 2.04 s. The Kp in data set [3] stood at 1.24 ± 0.18.
